Data as given in patent US5723465A, “Inhibitors for cell adhesion and cellular infiltration” (Kowa Co., Ltd., priority 1995, dated 1998).
Where two headings read alike, the source gives them in different places.

Legend:
[1] = system: adhesion of U937 cells to human umbilical vein endothelial cells (HUVEC); assay: Cell adhesion inhibitory effect: adhesion of U937 cells to IL-1β- or TNFα-stimulated HUVEC; type: cell-based; conditions: 0.75 h, 45 minutes adhesion at room temperature
Method: The test was performed with reference to a method described by Ross et al (J. Biol. Chem., 267, 8537-8543 (1992)). Briefly, endothelial cells derived from the human umbilical code vein (HUVEC) were cultured in a 48-well plate until they became confluent. Subsequently, IL-1β or TNFα was added. Five hours after the addition, U937 cells which are derived from human monocytes/histiocytes and FITC-labeled with PKH2 (Dainippon Seiyaku) were added to each well in an amount of 3×10^5 cells per well. After being allowed to stand for 45 minutes at room temperature, U937 cells which had not been adhered to were washed off, and the remaining cells were lysed using 1% Triton X-100. Fluorescent intensity was measured (Exi. 494 nm, Emi. 504 nm). The HUVEC cells were cultured in EGM-UV (Kurabo Industries Ltd.), and U937 cells were cultured in RPMI1640 plus 10% FCS. Each test drug (compound) was added to HUVEC simultaneously with the addition of IL-1β or TNFα, or to U937 cells 24 hours before the cell adhesion test, to thereby study the effect of the compound. The inhibitory activity was determined by the following equation: […]
(the number of drug-free U937 cells adhered to drug-free endothelial cells that have been stimulated with IL-1β or TNFα)--(the number of drug-free U937 cells adhered to drug-free endothelial cells that have not been stimulated with IL-1β or TNFα)=100%

[2] = system: lymphocyte infiltration (CD3 positive cells) in mouse contact dermatitis; assay: Lymphocyte infiltration inhibitory action in mouse contact dermatitis; type: in vivo, mouse (ddy male); conditions: 6 successive days before induction, 24 h after picryl chloride; for Ear weight (difference in weight of both ears): control 4.9 ± 0.7; for Count of CD3 positive cells: control 10.8 ± 1.3
Method: In accordance with a method described by Asherson et al. (Immunology, 15, 405-416 (1968)), action of the compound on lymphocyte infiltration in mouse contact dermatitis was investigated. Groups of ddy male mice that had been sensitized with picryl chloride, each group consisting of 10 animals (body weight: 28-32 g), were provided for the test. Test compound 2 was intraperitoneally administered to each animal for successive 6 days before induction took place (1 or 10 mg/kg). A 1% solution of picryl chloride-olive oil (0.02 ml) was applied to an ear of each animal. Twenty-four hours later, both ears were punched (7 mm.phi.), to thereby compute the difference in weight. The ears were then embedded in paraffin, frozen, and cut in a vertical direction with respect to the ear face to prepare thin slices each having a thickness of 4 μm. CD3 positive cells were immunostained and counted.

[3] = system: infiltration of trachea by eosinocytes; assay: Inhibition of eosinocyte infiltration in a guinea pig asthma model; type: in vivo, guinea pig (Hartley male); conditions: 6 successive days plus 2 hours after challenge, 24 h after, control 204.5 ± 15.3, blank 67.7 ± 7.2
Method: In accordance with a method described by Terashi (Allergy, 37, 980-991 (1988)), groups of Hartley male guinea pigs, each group consisting of 4-7 animals (body weight: about 300 g), were exposed to chicken egg albumin (10 mg/ml) by way of inhalation using a ultrasonic nebulizer for 10 minutes a day for successive 9 days, to thereby create a sensitized state of the animals. From the following day, test compound 2 was intraperitoneally administered to each animal for successive 6 days (10 or 30 mg/kg). On day 7, metopyrone (10 mg/kg) and chlorphenylamine (10 mg/kg) were intraperitoneally administered to each animal. Thirty minutes later, each animal was exposed to chicken egg albumin (10 mg/ml) for 10 minutes by way of inhalation. In addition, 2 hours thereafter, test compound 2 was intraperitoneally administered to each animal. Twenty-four hours later, each animal was exsanguinated to death, and its trachea was removed. The trachea was fixed with formalin and embedded in paraffin, so as to prepare thin slice samples. The samples were subjected to luna staining, and eosinocytes that infiltrated were counted.

[4] = system: mouse type II collagen arthritis; assay: Action on mouse type II collagen arthritis; type: in vivo, mouse (DBA/1 male); conditions: 30 mg/kg intraperitoneally once daily, 10 times
Method: The test was performed in accordance with a method described by Ranges et al. (J. Exp. Med., 162, 1105-1110 (1985)). To each of DBA/1 male mice (6-7 weeks old), 100 μg of type II collagen from bovine suspended in Freund's complete adjuvant was subcutaneously injected at the root of its tail. Twenty one days later, the mice was given a booster injection in a similar manner. The drug was intraperitoneally administered to each mouse once every day starting from 2 days prior to the booster injection until 7 days after the booster injection (a total of 10 times). The severity of arthritis was evaluated by measuring the thickness of the front foot pads. In addition, antibody titers (IgG+IgM) against type II collagen in serum were determined by ELISA.

[5] = system: leukocyte infiltration in rat carrageenin pleurisy; assay: Leukocyte infiltration inhibitory action in rat carrageenin pleurisy; type: in vivo; conditions: 2 successive days, 16 h after carrageenin; for Count of infiltrated cells: control 2.37 ± 0.06; for Pleural fluid volume: control 3.3 ± 0.3
Method: In accordance with a method described by Kikuchi et al. (Japan J. Pharmacol., 39, 467-473 (1985)), action of the compound on leukocyte infiltration in rat carrageenin pleurisy was investigated. Groups of SD male […], each group consisting of 6 animals (7 weeks old), were provided for the test. Test compound 2 was intraperitoneally administered to each animal for successive 2 days (10 or 30 mg/kg). Two hours after the final administration, a 2% (w/v) carrageenin solution (0.1 ml) was intrathoracically administered. Sixteen hours later, each animal was exsanguinated to death, and pleural fluid was collected. The volume of the collected pleural fluid was measured, and cells that infiltrated and present in the pleural fluid were counted.

[6] = IL-1β-stimulated HUVEC, read-out: Cell Adhesion (IC50), IL-1β Stimulation
[7] = TNFα-stimulated HUVEC, read-out: Cell Adhesion (IC50), TNFα Stimulation
[8] = 10 mg/kg intraperitoneally, p <0.05
[9] = 30 mg/kg intraperitoneally, p <0.01

`COc1ccc(/C=C/CCCN2CCN(CCC/C=C/c3ccc(OC)cc3)CC2)cc1` [compound 4] was tested. Which IC50 [1, 6] did it give?
The IC50 was 11.1 µM.

What about the IC50 [1, 7] of the same compound?
The IC50 was 9.4 µM.

How did the IC50 [1, 6] turn out when `COc1cc(/C=C/CCCN2CCCN(CCC/C=C/c3cc(OC)c(OC)c(OC)c3)CC2)cc(OC)c1OC` [compound 2] was run?
The IC50 was 9 µM.

What about the IC50 [1, 7] of the same compound?
Its IC50 is 9.5 µM.

What does the source list for `COc1cc(/C=C/CCCN2CCCN(CCC/C=C/c3cc(OC)c(OC)c(OC)c3)CC2)cc(OC)c1OC` [Test Compound 2, N,N'-bis-((E)-5-(3,4,5-trimethoxyphenyl)-4-pentenyl)homopiperazine.2HCl]?
Ear weight (difference in weight of both ears) ([2]; 1 mg/kg intraperitoneally): 4.5 ± 0.8 mg/7 mm.phi.; Count of CD3 positive cells ([2]; 1 mg/kg intraperitoneally, p <0.05): 7.8 ± 0.4 cells/mm; Ear weight (difference in weight of both ears) [2, 8]: 2.9 ± 0.6 mg/7 mm.phi.; Count of CD3 positive cells ([2]; 10 mg/kg intraperitoneally, p <0.01): 4.2 ± 0.7 cells/mm; Infiltration of trachea by eosinocytes [3, 8]: 171.0 ± 6.5 cells/mm; Infiltration of trachea by eosinocytes [3, 9]: 122.2 ± 7.0 cells/mm; Thickness of front foot pad, after 30 days ([4]; after 30 days, control 421.3 ± 13.1, blank 361.0 ± 4.2, p <0.05): 384.8 ± 6.9 × 10^-2 mm; Antibody titer against collagen (IgG + IgM), after 33 days ([4]; serum, ELISA, after 33 days, control 1.00 ± 0.13, blank 0 ± 0.00, p <0.01): 0.43 ± 0.10 percentage with respect to the; Count of infiltrated cells ([5]; 10 mg/kg intraperitoneally): 1.97 ± 0.05 × 10^8; Pleural fluid volume ([5]; 10 mg/kg intraperitoneally): 2.5 ± 0.3 mL; Count of infiltrated cells [5, 9]: 1.68 ± 0.22 × 10^8; Pleural fluid volume ([5]; 30 mg/kg intraperitoneally, p <0.05): 2.5 ± 0.3 mL

`COc1cc(/C=C\CCCN2CCCN(CCC/C=C\c3cc(OC)c(OC)c(OC)c3)CC2)cc(OC)c1OC` [compound 1] was tested. Which IC50 [1, 6] did it give?
Its IC50 is 9.7 µM.

And the IC50 [1, 7]?
The IC50 was 8 µM.

For `COc1ccccc1/C=C/CN1CCN(C/C=C/c2ccccc2OC)CC1` [compound 3], which IC50 [1, 6] is on record?
Its IC50 is 3.4 µM.

And the IC50 [1, 7]?
The IC50 was 12.9 µM.
